Results taken from ChEMBL document CHEMBL4043238, “Discovery of N-substituted 7-azaindoles as Pan-PIM kinase inhibitors - Lead series identification - Part II” (Bioorg Med Chem Lett, 2017).
Values after ≈ are worked out from the molar mass of the structure shown.

Experiments:
[1] = target: T1, Serine/threonine-protein kinase pim-1 (Homo sapiens, UniProt P11309); assay: Inhibition of PIM1 (unknown origin) assessed as reduction in BAD phosphorylation at Ser112 residues by TR-FRET assay
[2] = target: Serine/threonine-protein kinase pim-2 (Homo sapiens, UniProt Q9P1W9); assay: Inhibition of PIM2 (unknown origin) assessed as reduction in BAD phosphorylation at Ser112 residues by TR-FRET assay
[3] = target: Serine/threonine-protein kinase pim-3 (Homo sapiens, UniProt Q86V86); assay: Inhibition of PIM3 (unknown origin) assessed as reduction in BAD phosphorylation at Ser112 residues by TR-FRET assay
KG-1 = assay: Antiproliferative activity against human KG1 cells; type: functional, cell-based
[4] = target: T1, Serine/threonine-protein kinase pim-1; assay: Inhibition of PIM1 in human KG1 cells assessed as reduction in BAD phosphorylation; type: cell-based
[5] = Permeability from apical to basolateral side in human Caco2/TC7 cells at 5 uM; type: ADME, cell-based; conditions: Caco-2, read-out: permeability
[6] = target: Voltage-gated inwardly rectifying potassium channel KCNH2 (Homo sapiens, UniProt Q12809); assay: Inhibition of human ERG by patch clamp assay
[7] = Clearance in human liver microsomes assessed as compound extraction at 5 uM; type: ADME, microsome; conditions: read-out: CLH
[8] = Thermodynamic solubility of the compound at pH 7.4; type: physicochemical; conditions: buffer, read-out: Therm_solubility
[9] = AUC (0 to infinity) in mouse at 10 mg/kg, po administered as single dose; type: ADME, organism-based; set-up: dose 10 mg/kg, route oral, time infinity; conditions: in vivo
[10] = Half life in mouse at 3 mg/kg, iv administered as single dose; type: ADME, organism-based; conditions: in vivo
[11] = Half life in mouse at 10 mg/kg, po administered as single dose; type: ADME, organism-based; conditions: in vivo
[12] = (§1) Oral bioavailability in mouse at 10 mg/kg administered as single dose; type: ADME, organism-based; conditions: in vivo
[13] = Clearance in mouse at 3 mg/kg, iv administered as single dose; type: ADME, organism-based; conditions: in vivo
[14] = Volume of distribution at steady state in mouse at 3 mg/kg, iv administered as single dose; type: ADME, organism-based; conditions: in vivo, read-out: Vdss
[15] = Cmax in mouse at 3 mg/kg, iv or 10 mg/kg, po administered as single dose; type: ADME, organism-based; conditions: in vivo
Mus musculus [16] = assay: Clearance in mouse at 3 mg/kg, iv administered as single dose relative to hepatic blood flow; type: ADME, organism-based; conditions: in vivo
[17] = Inhibition of CYP450 (unknown origin); type: ADME; conditions: human
[18] = Induction of CYP450 (unknown origin); type: ADME; conditions: human
Mus musculus [19] = assay: as §1; type: ADME, organism-based; conditions: in vivo
Liver [20] = assay: Stability in human liver microsomes; type: ADME, microsome
Liver [21] = assay: Stability in rat liver microsomes; type: ADME, microsome
Liver [22] = assay: Stability in mouse liver microsomes; type: ADME, microsome
Cytochrome P450 3A4 [23] = target: T2, Cytochrome P450 3A4 (Homo sapiens, UniProt P08684); assay: Inhibition of CYP3A4 (unknown origin) using midazolam as substrate; type: ADME
Cytochrome P450 3A4 [24] = target: T2, Cytochrome P450 3A4; assay: Inhibition of CYP3A4 (unknown origin) using testosterone as substrate; type: ADME

Compound	IC50 [1]	IC50 [2]	IC50 [3]	further results
Cn1c(I)c(Cl)c2c(Cl)cc(C(N)=O)nc21	31 nM	640 nM	69 nM	
COC/C=C/c1c(Cl)c2c(Cl)cc(C(N)=O)nc2n1C1CCCNC1 (configuration not stated)	8 nM	57 nM		
NC(=O)c1cc(Cl)c2c(Cl)c(I)n(C3CCCC(O)C3)c2n1 (racemic)	8 nM	89 nM	28 nM	
NC(=O)c1cc(Cl)c2c(Cl)c(I)n(C3CCNC(=O)C3)c2n1 (racemic)	32 nM	660 nM	64 nM	
NC(=O)c1cc(Cl)c2c(Cl)c(I)n(CC3CCCN3)c2n1 (racemic)	12 nM	383 nM	45 nM	
Cc1c(-c2ccc(N3CCN(C)CC3)cc2)n(C)c2nc(C(N)=O)cc(Cl)c12	37 nM	1950 nM		
NC(=O)c1cc(Cl)c2c(Cl)c(I)n(C3CNC3)c2n1	250 nM	4220 nM	350 nM	
NC(=O)c1cc(Cl)c2c(Cl)c(C#CC3CC3)n(C3CCCNC3)c2n1 (racemic)	0.7 nM	6 nM		IC50 (KG-1): 167 nM; IC50 [4]: 75 nM; Papp A→B at 5 µM [5]: 3 ×10⁻⁶ cm/s; IC50 [6]: 1000 nM; hepatic extraction ratio at 5 µM [7]: 0.21; solubility thermodynamic [8]: 13 µM (≈ 4.9 µg/mL); AUC(0-inf) [9]: 2500 ng·h/mL; half-life [10]: 2.6 h; half-life [11]: 3.3 h; bioavailability [12]: 97%; clearance [13]: 65 mL/min/kg; Vd [14]: 11 L/kg; Cmax [15]: 958 ng/mL; CL (Mus musculus [16]): > 75%
NC(=O)c1cc(Cl)c2c(Cl)c(I)n(C3CCCNC3)c2n1 (racemic)	1 nM	6 nM	2 nM	IC50 (KG-1): 85 nM; IC50 [4]: 47 nM; Papp A→B at 5 µM [5]: 2.6 ×10⁻⁶ cm/s; hepatic extraction ratio at 5 µM [7]: 0.35; solubility thermodynamic [8]: 42 µM (≈ 18.4 µg/mL); AUC(0-inf) [9]: 15000 ng·h/mL; half-life [10]: 1.5 h; half-life [11]: 2.3 h; bioavailability [12]: 54%; clearance [13]: 6 mL/min/kg; Vd [14]: 0.55 L/kg; Cmax [15]: 3500 ng/mL
NC(=O)c1cc(Cl)c2c(Cl)c(I)n(CCC3CCNCC3)c2n1	3 nM	148 nM	17 nM	
NC(=O)c1cc(Cl)c2c(Cl)c(C3CC3)n(C3CCCNC3)c2n1 (racemic)	1 nM	13 nM		IC50 (KG-1): 310 nM; IC50 [4]: 115 nM; Papp A→B at 5 µM [5]: 1.9 ×10⁻⁶ cm/s; IC50 [6]: 2900 nM; hepatic extraction ratio at 5 µM [7]: 0.02; solubility thermodynamic [8]: 0.4 µM (≈ 0.141 µg/mL); inhibition (INH) [17]: Not Active; Activity [18]: Not Active; AUC(0-inf) [9]: 13700 ng·h/mL; half-life [10]: 3.1 h; half-life [11]: 8.9 h; F (Mus musculus [19]): 155%; clearance [13]: 18.3 mL/min/kg; Vd [14]: 4.6 L/kg; Cmax [15]: 292 ng/mL
NC(=O)c1cc(Cl)c2c(Cl)c(I)n(C3CCCC(N)C3)c2n1 (racemic)	1 nM	10 nM	2 nM	
NC(=O)c1cc(Cl)c2c(Cl)c(C3CCCO3)n(C3CCCNC3)c2n1 (configuration not stated)	31 nM	135 nM		
NC(=O)c1cc(Cl)c2c(Cl)c(I)n(C3CCCNCC3)c2n1 (racemic)	1 nM	15 nM	3 nM	
NC(=O)c1cc(Cl)c2c(Cl)c(C3CC3)n([C@@H]3CCCNC3)c2n1	4 nM	22 nM		IC50 (KG-1): 822 nM; Papp A→B at 5 µM [5]: 3.6 ×10⁻⁶ cm/s; IC50 [6]: 1500 nM; Stability (Liver [20]): 3%; Stability (Liver [21]): 8%; Stability (Liver [22]): 11%; IC50 (Cytochrome P450 3A4 [23]): > 30000 nM; IC50 (Cytochrome P450 3A4 [24]): > 30000 nM
NC(=O)c1cc(Cl)c2c(Cl)c(I)n(CC3CCNC3)c2n1 (racemic)	1 nM	23 nM	1 nM	
Cn1cc(-c2c(Cl)c3c(Cl)cc(C(N)=O)nc3n2C2CCCNC2)cn1 (configuration not stated)	1 nM	16 nM		

Compound	IC50 [1]	IC50 [2]	IC50 [3]	further results
NC(=O)c1cc(Cl)c2c(Cl)c(-c3ccccc3)n(C3CCCNC3)c2n1 (configuration not stated)	13 nM	109 nM		
NC(=O)c1cc(Cl)c2c(Cl)c(C(F)(F)F)n(C3CCCNC3)c2n1 (configuration not stated)	67 nM	25 nM		
NCC1CCC(n2c(I)c(Cl)c3c(Cl)cc(C(N)=O)nc32)CC1 (configuration not stated)	3 nM	9 nM		
CN1CCC(n2c(I)c(Cl)c3c(Cl)cc(C(N)=O)nc32)CC1	2 nM	34 nM	6 nM	
NC(=O)c1cc(Cl)c2c(Cl)c(I)n(C3CCC(O)CC3)c2n1 (configuration not stated)	8 nM	116 nM	25 nM	
NC(=O)c1cc(Cl)c2c(Cl)c(I)n(C3CN4CCC3CC4)c2n1 (racemic)	6 nM	99 nM	27 nM	
CCN(CC)CCn1c(I)c(Cl)c2c(Cl)cc(C(N)=O)nc21	125 nM	7410 nM	480 nM	
NC(=O)c1cc(Cl)c2c(Cl)c(C3=CCOCC3)n(C3CCCNC3)c2n1 (configuration not stated)	103 nM	179 nM		
NC(=O)c1cc(Cl)c2c(Cl)c(I)n(Cc3ccncc3)c2n1	720 nM		5620 nM	
COCC1CC1c1c(Cl)c2c(Cl)cc(C(N)=O)nc2n1C1CCCNC1 (configuration not stated)	42 nM	298 nM		
NC(=O)c1cc(Cl)c2c(Cl)c(I)n(CC3CCNCC3)c2n1	4 nM	99 nM	12 nM	
CC(C)=Cc1c(Cl)c2c(Cl)cc(C(N)=O)nc2n1C1CCCNC1 (configuration not stated)	4 nM	24 nM		
CN1CCN(c2ccc(-c3cc4c(Cl)cc(C(N)=O)nc4n3C)cc2)CC1	250 nM	> 30000 nM		
CSc1c(Cl)c2c(Cl)cc(C(N)=O)nc2n1C1CCCNC1 (configuration not stated)	3 nM	15 nM		
NC(=O)c1cc(Cl)c2c(Cl)c(I)n(C3CCNCC3)c2n1	2 nM	28 nM	4 nM	
NC(=O)c1cc(Cl)c2c(Cl)c(I)n(C3CCC(N)CC3)c2n1 (configuration not stated)	1 nM	6 nM	3 nM	
